Read-outs that look alike come from different tables or passages of the source.
How the values were obtained:
[1] = tested on: genotype 1b (Con-1) HCV replicon; assay: HCV replicon luciferase assay; assay type: cell-based; settings: Hepatitis C virus, 72 h, Huh-7 cells with genotype 1b HCV replicon, Renilla luciferase, 3 days incubation
Procedure: Cell lines. The cell lines used to evaluate compounds consist of a human hepatocyte derived cell line (Huh-7) that constitutively expresses a genotype 1b (Con-1) HCV replicon or a genotype 1b (Con-1) HCV replicon with an asparagine replacing the cysteine at amino acid 316, or a genotype 2a (JFH-1) replicon, containing a Renilla luciferase reporter gene. These cells were maintained in Dulbecco's modified Eagle medium (DMEM) containing 10% FBS, 100 U/mL penicillin/streptomycin and 1.0 mg/mL G418.
HCV replicon luciferase assay. To evaluate compound efficacy, titrated compounds were transferred to sterile 384-well tissue culture treated plates, and the plates were seeded with HCV replicon cells (50 μL at a density of 2.4×10^3 cells/well) in DMEM containing 4% FBS (final DMSO concentration at 0.5%). After 3 days incubation at 37° C., cells were analyzed for Renilla Luciferase activity using the EnduRen substrate (Promega cat #E6485) according to the manufacturer's directions. Briefly, the EnduRen substrate was diluted in DMEM and then added to the plates to a final concentration of 7.5 μM. The plates were incubated for at least 1 h at 37° C. then read on a Viewlux Imager (PerkinElmer) using a luminescence program. The 50% effective concentration (EC50) was calculated using the four-parameter logistic formula noted above.
Compound EC50 data is expressed as A: <100 nM; B=100-1000 nM; C>1000 nM).

HCV [2] = settings: combination therapy; cited from earlier work
HCV [3] = settings: cited from earlier work

Compound	EC50 ([1]; read-out: EC50 1b (class)) [µM]	further results
CCN(C#N)c1cc2oc(-c3ccc(F)cc3)c(C(=O)NC)c2cc1-c1cccc(C(=O)NCC(F)(F)C(F)(F)C(F)(F)C(F)(F)F)c1 [Compound 1002]	< 0.1	EC50 ([1]; read-out: EC50 (μM) 1b): 0.047 µM
CCN(C#N)c1cc2oc(-c3ccc(F)cc3)c(C(=O)NC)c2cc1-c1ccc(F)c(C(=O)NC2(c3ncccn3)CC2)c1 [Compound 1009]	< 0.1	
CCN(C#N)c1cc2oc(-c3ccc(F)cc3)c(C(=O)NC)c2cc1-c1cccc(C(=O)NC2(C(F)(F)F)CC2)c1 [Compound 1010]	< 0.1	
alpha-interferon and ribavirin		sustained efficacy in patients (HCV [2]): 40%
CCN(C#N)c1cc2oc(-c3ccc(F)cc3)c(C(=O)NC)c2cc1-c1cccc(C(=O)NC(C)(CO)CO)c1 [Compound 1011]	0.1 to 1	
CNC(=O)c1c(-c2ccc(F)cc2)oc2cc(N(CCO)S(C)(=O)=O)c(C3CC3)cc12 [HCV-796]		hepatic toxicity (HCV [3]; extended dosing of the combination regimens): hepatic toxicity observed during extended dosing of the combination regimens; HCV RNA levels in patients (HCV [3]; patients, single agent or combined with interferon and ribavirin): has shown an ability to reduce HCV RNA levels in patients
CCN(C#N)c1cc2oc(-c3ccc(F)cc3)c(C(=O)NC)c2cc1-c1cccc(C(=O)NC(C)(C)C#N)c1 [Compound 1007]	< 0.1	EC50 ([1]; read-out: EC50 (μM) 1b): 0.0041 µM
[2H]C([2H])([2H])C(NC(=O)c1cc(-c2cc3c(C(=O)NC)c(-c4ccc(F)cc4)oc3cc2N(C#N)CC)ccc1OC)(C([2H])([2H])[2H])C([2H])([2H])[2H] [Compound 1017]	< 0.1	EC50 ([1]; read-out: EC50 (μM) 1b): 0.0039 µM
CCN(C#N)c1cc2oc(-c3ccc(F)cc3)c(C(=O)NC)c2cc1-c1cccc(C(=O)NC2(c3ncccn3)CC2)c1 [Compound 1013]	< 0.1	
CCN(C#N)c1cc2oc(-c3ccc(F)cc3)c(C(=O)NC)c2cc1-c1cccc(C(=O)NC(C)(C)COC)c1 [Compound 1006]	< 0.1	
CCN(C#N)c1cc2oc(-c3ccc(F)cc3)c(C(=O)NC)c2cc1-c1cccc(C(=O)NC2(C#N)CCC2)c1 [Compound 1015]	< 0.1	
CCN(C#N)c1cc2oc(-c3ccc(F)cc3)c(C(=O)NC)c2cc1-c1cccc(C2=NC(C)(C)C(=O)O2)c1 [Compound 1012]	0.1 to 1	EC50 ([1]; read-out: EC50 (μM) 1b): 0.36 µM
CCN(C#N)c1cc2oc(-c3ccc(F)cc3)c(C(=O)NC)c2cc1-c1ccc(OC)c(C(=O)NC(C)(C#N)C(C)C)c1 (stereo not shown) [Compound 1014]	< 0.1	
CCN(C#N)c1cc2oc(-c3ccc(F)cc3)c(C(=O)NC)c2cc1-c1ccc(OC)c(C(=O)NC2(C#N)CCCC2)c1 [Compound 1008]	< 0.1	
CCN(C#N)c1cc2oc(-c3ccc(F)cc3)c(C(=O)NC)c2cc1-c1cccc(C(=O)NC(C)(C)CO)c1 [Compound 1005]	< 0.1	
CCN(C#N)c1cc2oc(-c3ccc(F)cc3)c(C(=O)NC)c2cc1-c1cccc(C(=O)NCC(C)(C)c2ccccc2)c1 [Compound 1001]	< 0.1	
CCN(C#N)c1cc2oc(-c3ccc(F)cc3)c(C(=O)NC)c2cc1-c1ccc(OC)c(C(=O)NC(CF)(CF)CF)c1 [Compound 1003]	< 0.1	
CCN(C#N)c1cc2oc(-c3ccc(F)cc3)c(C(=O)NC)c2cc1-c1cccc(C(=O)NC(C)(C)CC(C)O)c1 (stereo not shown) [Compound 1004]	< 0.1	EC50 ([1]; read-out: EC50 (μM) 1b): 0.013 µM
CCN(C#N)c1cc2oc(-c3ccc(F)cc3)c(C(=O)NC)c2cc1-c1cccc(C(=O)NC(C)(C)C(=O)OC)c1 [Compound 1016]	< 0.1	

From US9920036B2, “Cyanoamino (aza)benzofuran compounds for the treatment of hepatitis C” (BRISTOL-MYERS SQUIBB COMPANY, priority 2014, dated 2018)
